The source of these data is article PMC10094450, “Investigation of the Entry Pathway and Molecular Nature of σ1 Receptor Ligands” (International Journal of Molecular Sciences, 2023).

Where two headings read alike, the source gives them in different places.

Experiment [1] concerns the target T1, Hsσ1-R (Homo sapiens, UniProt Q99720). More on the design: FLAG; made in house; host or cells: Sf9 insect cells (baculovirus, pFastbac1); method as in PMID 33525510. The conditions noted are these: purified σ1R immobilized on a matrix; read-out: KD by SPR; cited from earlier work.
Experiment [2] concerns the target T1, Hsσ1-R. Put plainly: Fluorescence titration (intrinsic tryptophan fluorescence quenching) of purified Hsσ1-R.
Source text: Since the intrinsic fluorescence of tryptophan residues within a given protein depends on the tryptophan’s environment, when a molecule binds near tryptophan residues it can lead to fluorescence intensity quenching (Figure 6). Thanks to the fact that two of the tryptophan residues (i.e., Trp89 and Trp164) are part of the previously identified Hsσ1-R binding site (Supplementary Figure S11), we were able to perform fluorescence titration to measure the affinity of selected molecules for this receptor.
Binding of ligands to Hsσ1-R was followed by measuring the intrinsic protein fluorescence on a Fluoromax-4 spectrofluorometer (Horiba-Jobin Yvon). Fluorescence spectra were collected at 25 °C using a 1 cm path length cuvette, under continuous stirring. The excitation wavelength was 280 nm, and emission was recorded between 300 and 450 nm. The protein was used at 100 nM concentration in a buffer containing 0.01% LMNG, 0.001% CHS, 100 mM NaCl and 20 mM HEPES pH 7.5. The ligands were added to the protein solution, starting from a 10 mM stock solution in 100% DMSO, at a final concentration within the range 0.01 to 100 μM. The measurements were performed after each addition, following 3 min of incubation.
This equation describes a two-site model in which the binding sites are independent of each other, and at each site the interaction is non-cooperative [71]:(2) ΔF=ΔFmax1×Ltot/KD1+Ltot+ΔFmax2×Ltot/KD2+Ltot where: ΔF is the fluorescence quenching due to ligand binding; ΔFmax is the maximum fluorescence quenching possible in the experiment; [L]tot is the total concentration of the ligand; and KD1 and KD2 are the dissociation constants for the two sites.
[3] abbreviates: read-out: KD2, low-affinity site, two-site model, 25 °C.

T1 sequence (Q99720 whole entry): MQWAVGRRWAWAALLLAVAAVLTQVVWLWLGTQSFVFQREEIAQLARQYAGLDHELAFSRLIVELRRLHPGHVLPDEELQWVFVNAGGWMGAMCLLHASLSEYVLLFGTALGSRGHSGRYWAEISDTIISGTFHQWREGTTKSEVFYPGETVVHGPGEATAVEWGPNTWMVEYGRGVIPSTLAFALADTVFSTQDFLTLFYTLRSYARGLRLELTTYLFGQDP

Consider `COc1cc(C(C)=O)ccc1OCCCN1CCC(c2noc3cc(F)ccc23)CC1` [Iloperidone], for which the figures for the Kd in experiment [1], in experiment [2] and in experiment [2] (setting [3]) were 5 µM, 0.019 ± 0.015 µM and 33.1 ± 14.4 µM, respectively.

In the case of `CC(=O)C1=CC[C@H]2[C@@H]3CCC4=CC(=O)CC[C@]4(C)[C@H]3CC[C@]12C` [16,17-didehydroprogesterone], the Kd in experiment [2] (read-out: KD1, high-affinity site, two-site model, 25 °C) came out at 0.01 ± 0.004 µM; in experiment [2] (setting [3]), 15.8 ± 4.03 µM. Moreover, in experiment [2] (versus pridopidine, same assay), the “KD for the high affinity site, fold better than that of pridopidine” value is 25 fold.
